The target in one test is T1, PLIN3 (Homo sapiens, UniProt O60664).
T1 construct: Plasmids containing human full-length PLIN3 or fragments thereof were obtained by PCR amplification; made in house; host or cells: Escherichia coli BL21 (DE3) or NiCo21 (DE3)
T1 sequence (O60664 1-434): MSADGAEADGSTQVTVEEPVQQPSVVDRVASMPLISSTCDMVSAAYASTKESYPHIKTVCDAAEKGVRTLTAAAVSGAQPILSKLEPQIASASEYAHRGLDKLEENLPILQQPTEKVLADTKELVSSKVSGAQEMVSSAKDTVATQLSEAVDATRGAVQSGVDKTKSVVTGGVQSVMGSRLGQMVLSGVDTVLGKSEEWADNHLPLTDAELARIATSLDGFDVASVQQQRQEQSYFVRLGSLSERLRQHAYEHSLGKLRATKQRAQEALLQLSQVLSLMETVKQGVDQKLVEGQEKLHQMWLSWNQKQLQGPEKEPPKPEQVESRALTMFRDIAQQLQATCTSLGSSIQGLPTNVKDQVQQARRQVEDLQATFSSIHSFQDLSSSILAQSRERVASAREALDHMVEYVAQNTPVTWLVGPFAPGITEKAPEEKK
The test can be described thus: Microscale thermophoresis (MST) binding of lipids, liposomes or ALDs to full-length WT PLIN3. The following applies: short chain lipid as free ligand; Fig. 1I, Fig. 4C; read-out: KD. The source says: To corroborate these findings, we analyzed binding of PLIN3 to liposomes using microscale thermophoresis (MST), an immobilization-free technology for measuring biomolecular interactions based on the diffusion of a fluorescently labeled protein along a microscopic temperature gradient. In this assay, the free protein diffuses faster than the one which has bound to a ligand. Ligands can range from small ions to low molecular weight compounds, liposomes, or even viruses ([24], [25], [26], [27], [28]). Variations in fluorescence intensity are then plotted against the ligand concentrations to determine a binding affinity. […] To determine the optimal DAG concentrations for PLIN3 binding, we varied the DAG concentrations in the ER-liposomes between 0 to 20 mol%.
(§1) Binding of purified PLIN3 protein and PLIN3 domains to liposomes, ALDs, or short chain lipids was determined by MST using a Monolith NT.115 system (Nanotemper Technologies). Proteins were labeled with a RED-tris-NTA His tag protein-labeling reagent following the manufacturer’s instructions (Nanotemper Technologies). Labeled proteins were added to a serial dilution of unlabeled lipids, liposomes, or ALDs, and the mixtures were loaded into MST standard capillaries to assess binding affinities. The dissociation constant was obtained by plotting fluorescence intensities of the protein–lipid complex against the concentrations of the unlabeled lipids, liposomes, or ALDs. Experiments were performed in triplicates and data were fitted using the KD Model of the MO.Affinity Analysis software (https://nanotempertech.com/, Nanotemper Technologies).
(MST reads how a fluorescent partner responds to local heating, with and without ligand.)

The next test addresses T2, PLIN3 - E86A (Homo sapiens, UniProt O60664, E86A).
T2 construct: Plasmids containing human full-length PLIN3 or fragments thereof were obtained by PCR amplification; made in house; host or cells: Escherichia coli BL21 (DE3) or NiCo21 (DE3)
T2 sequence (O60664 1-434 E86A): T1 sequence (O60664 1-434) with E86A
Description: MST binding to the PLIN3 point mutant. The following applies: short chain lipid as free ligand.
Excerpt: (§2) To validate this predicted mode of DAG binding by the PAT domain, we generated mutant versions of PLIN3 and assessed their impact on DAG binding by MST. First, we tested whether the simultaneous substitution of the five residues, Q22, S24, E86A, I89G, and S93A, would impact either binding of short chain DAG or that of liposomes containing low concentrations of DAG. […] To assess the impact of these residues in more detail, we first tested mutations in the two serine residues S24A and S93A. […] To confirm the importance of the glutamic acid residue at position 86 for binding of DAG, we also generated an E86A point mutant version.
as §1, with “Experiments were performed in triplicates and data were fitted using the KD Model of the MO.Affinity Analysis software (https://nanotempertech.com/, Nanotemper Technologies).” left out

In the next test the target is T3, PLIN3 - S24A S93A (Homo sapiens, UniProt O60664, S24A/S93A).
T3 construct: Plasmids containing human full-length PLIN3 or fragments thereof were obtained by PCR amplification; made in house; host or cells: Escherichia coli BL21 (DE3) or NiCo21 (DE3)
T3 sequence (O60664 1-434 S24A/S93A): T1 sequence (O60664 1-434) with S24A, S93A
Description: MST binding to the PLIN3 serine double mutant. As to conditions: short chain lipid as free ligand.
Excerpt: as §2
as §1, with “Experiments were performed in triplicates and data were fitted using the KD Model of the MO.Affinity Analysis software (https://nanotempertech.com/, Nanotemper Technologies).” left out

For the next test, the target named is T4, PAT domain of PLIN3 (Homo sapiens, UniProt O60664).
T4 sequence (O60664 1-107 limits assumed): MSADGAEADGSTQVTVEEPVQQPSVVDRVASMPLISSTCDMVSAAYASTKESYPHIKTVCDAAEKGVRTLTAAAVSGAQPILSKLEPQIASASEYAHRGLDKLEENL
Description: MST binding to the PAT domain of PLIN3. The following applies: short chain lipids as free ligands.
Excerpt: (§3) To gain further insight into the binding of PLIN3 to DAG-containing membranes, we examined the contribution of each individual domain of PLIN3 towards lipid binding, that is, the N-terminal PAT domain, the central 11-mer repeat region, and the C-terminally located 4-helix bundle (Fig. 2A). Therefore, we expressed and purified proteins harboring individual domains of PLIN3 and first examined their binding of short-chain lipids.
as §1

The target of a further test is T5, 4-helix bundle of PLIN3 (Homo sapiens, UniProt O60664).
T5 sequence (O60664 245-434 limits assumed): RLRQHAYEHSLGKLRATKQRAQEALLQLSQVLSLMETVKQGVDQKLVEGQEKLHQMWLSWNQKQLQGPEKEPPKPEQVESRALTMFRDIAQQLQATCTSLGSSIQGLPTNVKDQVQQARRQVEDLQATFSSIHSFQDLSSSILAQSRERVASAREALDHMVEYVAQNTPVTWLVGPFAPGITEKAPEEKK
Description: MST binding to the 4-helix bundle of PLIN3. As to conditions: short chain lipids as free ligands; n.d. = not detected; Fig. 2B; read-out: KD 4-helix.
Excerpt: as §3, §1

Where a chain is given by its changes, count along the chain named.

Turning to `CCCCCCCC(=O)OC[C@H](CO)OC(=O)CCCCCCC` [8:0 DAG, 1,2-dioctanoyl-sn-glycerol], the Kd (as a rule, the constant that tells how readily two partners part at equilibrium) on PLIN3 amounted to 100 nM; on PLIN3 - E86A (Fig. 4C), 87300 nM; at PLIN3 - S24A S93A (Fig. S1) it was 2090 nM; on PAT domain of PLIN3 (n.d. = not detected, Fig. 2B) it was 390 nM; at 4-helix bundle of PLIN3 it was 20700 nM. The “fold less efficient binding than WT PLIN3” value on PLIN3 - E86A worked out at 873 fold. Further, at PLIN3 - S24A S93A, the “fold decreased affinity versus WT PLIN3” value was found to be 20.9 fold. Moreover, on PAT domain of PLIN3, the “fold stronger binding than 8:0 PA” value turned out to be 36 fold.

These data come from PMC10694602, “Binding of perilipin 3 to membranes containing diacylglycerol is mediated by conserved residues within its PAT domain” (The Journal of Biological Chemistry, 2023).
